Laboratory results published in US6800674B2, “Anthraquinone compound and water-based ink-jet recording ink containing the compound” (Mitsui Chemicals, Inc., priority 2000, dated 2004).

Key:
Type in all cases: physicochemical
[1] = Evaluation of water resistance (OD1 after/before dipping in water); conditions: aqueous ink, OD1 after dipping in water and air-drying
Method: (§1) Glycerin and water were added to the dispersion (A) of colored resin fine particles to obtain aqueous ink having a solid content of 15% by weight. This aqueous ink was used, and filled in an ink cartridge for a piezo-type ink jet printer, and printing and image recording were conducted with the same printer. The test was conducted on the following items.
(D) Evaluation of Water Resistance
With respect to a printed portion of a plain paper having a recorded image thereon for test, printing density (OD value) was measured with a reflection densitometer before dipping in water and after dipping in water and air-drying. Water resistance was evaluated upon comparing OD1.
OD1=(OD value after dipping in water and air-drying)/(OD value before dipping in water)×100[%]

[2] = Evaluation of emulsification (visual, in production of emulsion ink); conditions: ink produced as in Example 1
Method: as §1
(A) Evaluation of Emulsification
The emulsification condition in the production of emulsion ink was visually observed, and evaluated.

[3] = Evaluation of light fastness (xenon fadeometer, OD2); conditions: for E (Evaluation of light fastness): aqueous ink, ink production process Example 1, OD2 after 100 hours of irradiation
Method: as §1
(E) Evaluation of Light Fastness
Printing density (OD value) was measured using a xenon fadeometer (manufactured by Suga Shikenki) before irradiation and after 100 hours of irradiation. Light fastness was evaluated upon comparing OD2.
OD2=(OD value after irradiation)/(OD value before irradiation)×100[%]

[4] = Solvent solubility of the coloring matter; conditions: for solubility of the coloring matter (in words): ink produced as in Example 1
[5] = Evaluation of light fastness (xenon fadeometer, OD2); conditions: aqueous ink, ink production process Example 2; OD2 after 100 hours of irradiation
[6] = Absorption in toluene solution
[7] = ink production process Example 1
[8] = ink production process Example 2

SMILES	D (Evaluation of water resistance) [1, 7]	evaluation of emulsification (in words) [2]	E (Evaluation of light fastness) [3]	solubility of the coloring matter (in words) [4]	light fastness (in words) [3]	E (Evaluation of light fastness) [5]	D (Evaluation of water resistance) [1, 8]	gram absorption coefficient (εg) [6]	maximum absorption wavelength (λmax) [6]	solubility in toluene ([4]; toluene, room temperature)
O=C1c2ccccc2C(=O)c2c1ccc(O)c2O [Comparative Example 1, reference compound]	X (OD value is less than 50%.)	poor emulsification	X (OD value is less than 50%.)	low						
COc1cc(N)c2c(c1N)C(=O)c1ccccc1C2=O [Comparative Example 2, reference compound]	Δ (OD value is 50 to less than 70%.)		X (OD value is less than 50%.)	low	extremely bad					
CNc1cccc2c1C(=O)c1ccccc1C2=O [Comparative Example 3, reference compound]	◯ (OD value is 70 to less than 80%.)		X (OD value is less than 50%.)	low	extremely bad					
CCCCN(CCCC)c1cccc(Oc2cc(O)c3c(c2N)C(=O)c2ccccc2C3=O)c1 [compound 9]	⊚⊚ (OD value is 90 to 100%.)		⊚⊚ (OD value is 90 to 100%.)			⊚⊚ (OD value is 90 to 100%.)	⊚⊚ (OD value is 90 to 100%.)	30,200 ml/g·cm	517 nm	≥ 40%
CCN(CC)c1cccc(Oc2cc(O)c3c(c2N)C(=O)c2ccc(OC)cc2C3=O)c1 [compound 16]	⊚ (OD value is 80 to less than 90%.)		⊚ (OD value is 80 to less than 90%.)			⊚ (OD value is 80 to less than 90%.)	⊚ (OD value is 80 to less than 90%.)			
CCCCCCN(CCCCCC)c1cccc(Oc2cc(O)c3c(c2N)C(=O)c2cccc(C)c2C3=O)c1 [compound 18]	⊚⊚ (OD value is 90 to 100%.)		⊚⊚ (OD value is 90 to 100%.)			⊚⊚ (OD value is 90 to 100%.)	⊚⊚ (OD value is 90 to 100%.)			
